Test results: patent US10485772B2, “Compositions for modulating cancer stem cells and uses therefor” (University of Canberra, priority 2014, dated 2019)
“Also recorded” adds a separate entry of the source.

Assays:
Format in all cases: cell-based, human
[1] = tested on: CD44^high/CD24^low CSC-like subpopulation of PMA-stimulated MCF-7 cells (MCF-IM model); experiment: FACS analysis of CD44high/CD24low CSC-like subpopulation in MCF-IM model; settings: for CD44 high CD24 low-CSC-like subpopulation (CSC formation) by FACS: NCD38 5 μM for 17 hr prior to PMA stimulation for 60 hours
Experimental: (§1) Cells from each well/flask were harvested by means of trypsin treatment followed by two washes with PBS. Washed cells then re-suspended in an antibody cocktail consisting anti-CD44-APC, anti-CD24-PE antibodies (details in Table 5) and Hoechst 33258 dye (final dilution of 1:1000) (Invitrogen, Carlsbad, Calif.) in 1% FCS-PBS solution. Cells re-suspended in antibody cocktail were incubated for 20 minutes at 4° C. Cells were next washed twice with PBS and re-suspended in 1% FCS-PBS solution (volume based on cell number) and kept on ice until analyzed by FACS. Forward scatter (FSC) and side scatter parameters were selected with FITC fluorochrome excited by 488 nm argonion laser, PE fluorochrome excited by 488 nm and Hoechst fluorochrome excited by 350 nm helium-cadmium UV laser.
(§2) Flow Cytometry data was produced using either BD FACS LSR Flow Cytometer (Becton Dickinson Biosciences) or BD FACS Aria™ II Flow Cytometer (Becton Dickinson Biosciences) and analyzed using the data acquisition software CellQuest Pro (Becton Dickinson Biosciences) and FlowJo (Tree Star Inc., Ashland, Oreg.) software at the MCRF facility, JCSMR, ANU, Canberra, Australia. Single colour controls were used to set compensation parameters. Isotype controls were used for all corresponding primary antibodies in each experiment.
The FACS gating strategy used in this thesis is adopted and modified from the pioneer breast cancer stem cell publications (Al-Hajj et al., 2003) which sorted cells based on the CD44^high and CD24^low expression. […] To confirm that anti-CD44-APC and anti-CD24-PE antibodies were specific, isotype control antibodies were used. The isotype (negative controls) used for anti-CD24-PE was PE Mouse-Anti-human IgG2aK and for anti-CD44-APC was APC-Mouse-Anti-human IgG2bK. First, all the cells were stained with Hoechst 33258 to monitor cell viability. In addition cells were stained with varying concentrations of either APC or PE isotypes controls.
(§3) The adherent human mammary adenocarcinoma MCF-7 and MDA-MB-231 cells were cultured in low glucose DMEM (Gibco) and both supplemented with 10% FCS, 2 mM L-glutamine and 0.1% PSN antibiotics. Cells were stimulated with 0.65 ng/ml of phorbol 12-myristate 13-acetate (PMA) (Sigma-Aldrich) or 20 ng/ml of TGF-β (R&D systems) for the times indicated. For Bisindolylmaleimide-I (Calbiochem) or PKC-θ peptide inhibitor (Calbiochem) studies, cells were pre-treated with 1 μM or 30 μM of inhibitor respectively for 1 h prior to stimulation in MCF-7 cells. In case of MDA-MB-231, cells were treated with 4 μM or 30 μM Bisindolylmaleimide-I or PKC-θ peptide inhibitor respectively.
(§4) To separate CSC from non-CSC (NCSC), florescence activated cell sorting (FACS) was performed on single-cell suspensions that were stained with anti-CD44-APC (559942, BD Biosciences) and anti-CD24-PE antibodies (555428, BD Biosciences) along with Hoechst 33258 to monitor cell viability. As used throughout this work, CSC are defined by minority CD44^high/CD24^low, whereas NCSC are defined by rest of the cell populations.
The adherent human mammary adenocarcinoma cell lines MCF-7 were cultured in low glucose DMEM (Gibco) and supplemented with 10% FCS, 2 mM L-glutamine, and 0.1% PSN antibiotics. Cells were stimulated with 0.65 ng/ml of phorbol 12-myristate 13-acetate (PMA) (Sigma-Aldrich) for 60 hours. FACS was performed on single-cell suspensions stained with anti-CD44-APC (559942, BD Biosciences) and anti-CD24-PE antibodies (555428, BD Biosciences), along with Hoechst 33258 (561908, BD Biosciences) to monitor cell viability as previously detailed (Zafar et al., Chromatinized PKC-theta directly regulates inducible genes in epithelial to mesenchymal transition and breast cancer stem cells. Molecular and Cellular Biology, 2014, 34:16 2961-2980). […]

[2] = tested on: MCF-7 cells; experiment: EMT assay by phase contrast microscopy in MCF-IM model; settings: MCF-7 cells; PMA 20 ng/mL for 60 hr, compared with TNF-α, EGF, IL-6, TGF-β
Experimental: EMT assays were performed in 24-well plates (Costar, Corning Inc., Corning, N.Y., USA). For this assay, usually MCF-7 cells were seeded at 4×10^4/well/500 μL media one day before the experiment unless otherwise specified. Cells were stimulated with various EMT stimuli prepared in warm media the following day and monitored for EMT changes under the microscope specified below. The percentage of EMT was generally calculated based on phenotype counting 100 cells per field under the microscope. All the potential EMT stimuli used herein are described in Table 6 and they were prepared and stored as per supplier specification.
(§5) Phase contrast microscopy was utilized for EMT and wound healing assays under 10× or 20× magnification of Olympus Fluorescence 1X71 microscope. Images were captured and analyzed as described above except that wound healing assay pictures were also analyzed by Image J software (Free software in Public domain developed by NIH).
The adherent human mammary adenocarcinoma MCF-7 and MDA-MB-231 cells were cultured in low glucose DMEM (Gibco) and both supplemented with 10% FCS, 2 mM L-glutamine and 0.1% PSN antibiotics. […] For Bisindolylmaleimide-I (Calbiochem) or PKC-θ peptide inhibitor (Calbiochem) studies, cells were pre-treated with 1 μM or 30 μM of inhibitor respectively for 1 h prior to stimulation in MCF-7 cells. In case of MDA-MB-231, cells were treated with 4 μM or 30 μM Bisindolylmaleimide-I or PKC-θ peptide inhibitor respectively.
(§6) phase contrast microscopy was performed where cells were viewed at ×4 magnification (wound healing assay) or ×10 magnification (EMT) using an Olympus fluorescence IX71 microscope (Olympus) and images were captured using DPController software (2002 Olympus Optical Co. LTD) and analyzed using Photoshop CS3 (Adobe Systems Inc.). Scans were taken with a 10 μm scale bar.

[3] = tested on: MCF-7 cells (mammospheres); experiment: Mammosphere assay in MCF-IM model; settings: NCD38 5 μM for 17 hr prior to PMA for 6 days, mammospheres larger than 60 μm counted
Experimental: The following mammosphere culture media components were purchased from StemCell Technologies Inc., BC, Canada: Mammocult Basal medium (Human) (catalogue number-05621), Mammocult Proliferation Supplements (Human) (catalogue number-05622), heparin (catalogue number-07904) and hydrocortisone (catalogue number-[…]). Hydrocortisone powder was freshly dissolved into mammocult basal medium to get 10^−4M solution on the day of experiment. 50 mL of
Mammocult complete media was then prepared by addition of 45 mL Mammocult basal medium, 5 mL mammocult proliferation supplements, 100 μL of the 0.2% heparin stock, 500 μL of 10^−4M stock of hydrocortisone and 50 μL of the PNS. Mammocult complete media was either used on same day or stored for not more than 7 days at 4° C.
MCF-7 cells were grown in a 175 cm^2 cell culture flask and harvested using a cell scraper (Zellschaber, Switzerland) or FACS sorted as specified below. Importantly trypsin treatment was never used for harvesting cells as it interferes with the mammosphere assay. Harvested cells were then re-suspended in 1 mL mammocult complete media and centrifuged at 500×g for 3 minutes at 20° C. The cell pellet was then re-suspended in 1 mL mammocult complete media before counting the cells on the Vi-CELL counter. Cell dilutions were then prepared to stain 40,000 cells/2 mL and 2 mL of cells were seeded in the 6 well-ultra low adherent, flat bottom plates (Costar, Corning Inc, Corning, N.Y., USA). Cells were either stimulated or not treated according to the experimental protocol and incubated at 37° C., under 5% CO2 for 7 days in a Hepa-Filtered Infrared (IR) Incubator (Forma Scientific Inc., Materietta, Ohio). Mammospheres larger than 60 μm were counted per well on day 7 and pictures were taken with an Olympus microscope. All the mammosphere assays were performed in duplicate wells and the entire procedure was repeated at least twice.
Mammosphere culture media components were purchased from StemCell Technologies and mammosphere assays were performed as recommended by the manufacturer's guidelines. Briefly, 40,000 cells/2 ml cell dilutions were then prepared and 2 ml of cells were seeded in the 6 well-ultralow adherent, flat bottom plates (Costar). Mammospheres larger than 60 μm were counted per well on day 7 and pictures were taken.

[4] = tested on: MDA-MB 231 cells; experiment: FACS analysis of CD44high/CD24low CSC-like subpopulation in Basal/metastatic model; settings: NCD38 5 μM
Experimental: as §1, §2, §3, §4

[5] = tested on: MDA-MB 231 cells; experiment: Phase contrast microscopy of EMT/MET in Basal/metastatic model; settings: NCD38 5 μM
Experimental: as §5, §3, §6

CC(C)[C@@](C)(O)[C@@H]1CN(c2nc(-c3n[nH]c4ncccc34)c(F)cc2Cl)CCN1 [Compound C27]
inhibition at 0.1 µM ([1]; Homo sapiens, MCF7, MCF-IM model, C27 alone at 100 nM): ~30% | inhibition at 0.5 µM ([1]; Homo sapiens, MCF7, MCF-IM model, C27 alone at 500 nM): ~90%

CCCCCCCCCCCCCC(=O)O[C@@H]1[C@@H](C)[C@@]2(O)[C@@H](C=C(CO)C[C@]3(O)C(=O)C(C)=C[C@@H]23)[C@@H]2C(C)(C)[C@]12OC(C)=O [PMA, Phorbol 12-Myristate 13-Acetate]
generation of CD44high/CD24low CSC-like cells by FACS ([1]; MCF-7 cells stimulated with PMA 0.65 ng/mL for 60 hr): generation of CD44^high/CD24^low-CSC like cells | EMT (percentage of the cells undergoing EMT, morphological changes) [2]: results in maximal EMT; also recorded: caused highest EMT changes

O=C(N[C@@H](CCNC1CC1c1ccccc1)C(=O)NCc1cccc(Cl)c1)c1ccc(-c2ccccc2)cc1 (some centres unmarked) [NCD-38]
inhibition at 2.5 µM ([1]; Homo sapiens, MCF7, MCF-IM model, NCD-38 alone at 2.5 μM): ~50% | inhibition at 5 µM ([1]; Homo sapiens, MCF7, MCF-IM model, NCD-38 alone at 5 μM): ~60% | CD44 high CD24 low-CSC-like subpopulation (CSC formation) by FACS ([1]; MCF-IM model): inhibition CSC formation | CD44 high CD24 low-CSC-like subpopulation (CSC formation) by FACS ([1]; MCF-IM model, listed as NCD38): inhibits CD44 high CD24 low-CSC-like subpopulation | mammosphere formation [3]: inhibition CSC formation | mammosphere formation ([3]; listed as NCD38): reduce mammosphere formation | CD44 high CD24 low-CSC-like subpopulation (CSC formation) by FACS [4]: decrease of CSC formation | CD44 high CD24 low-CSC-like subpopulation (CSC formation) by FACS ([4]; listed as NCD38): inhibits CD44 high CD24 low-CSC-like subpopulation | EMT / conversion of mesenchymal cells to epithelial cells (MET), phase contrast morphology [5]: conversion of mesenchymal cells in to epithelial cells | EMT / conversion of mesenchymal cells to epithelial cells (MET), phase contrast morphology ([5]; listed as NCD38): inhibit EMT
